Converted amounts (≈) assume the structure as drawn. “Also recorded” adds a separate entry of the source. Read-outs that look alike come from different tables or passages of the source.
Tests used:
[1] = molecular target: DHM444 mutant RpsA binding to tmRNA (Mycobacterium tuberculosis, UniProt P9WH43, DEL438-438); set-up: species or system M. tuberculosis
[2] = test system: M. tuberculosis strains (wild type and wild type/pOLYG, and wild type/pOLYG+rpsA); experiment: microbe, parasite or virus in culture; type: cell-based; details: for susceptibility of the RpsA overexpressing Mtb strain to other drugs: compared with parent strain or vector control strain, pH6.8; for MIC: Mycobacterium tuberculosis, read-out: minimum inhibitory concentration (MIC)
[3] = molecular target: mutant RpsAΔA438 from the PZA-resistant strain DHM444 (Mycobacterium tuberculosis, UniProt P9WH43, DEL438-438); type: binding, M. tuberculosis
[4] = test system: M. tuberculosis; type: cell-based
[5] = test system: Mtb clinical isolate DHM444 / H37Rv; experiment: microbe, parasite or virus in culture; type: cell-based, M. tuberculosis; details: Mycobacterium tuberculosis

SMILES | effect on tmRNA binding to mutant RpsA [1] | susceptibility of the RpsA overexpressing Mtb strain to other drugs [2] | binding to mutant RpsA (ITC) [3] | further results
NNC(=O)c1ccncc1 [INH, isoniazid] | no effect; also recorded: not affected | remained the same |  | 
O=C(O)c1cnccn1 [POA, 2-pyrazinecarboxylic acid] | did not inhibit |  | not and failed to bind | 
NC(=O)c1cnccn1 [PZA, Pyrazinamide] | no effect; also recorded: not affected |  | did not bind; also recorded: failed to bind | MIC [4]: 10 µg/mL (≈ 81.2 µM); PZA susceptibility [4]: more susceptible; effect on PZA susceptibility [4]: did not have significant effect; reduction in MIC [4]: 5 fold; MIC [5]: 200 to 300 µg/mL (≈ 1620 to 2440 µM); MIC ([2]; pH 5.5, PZA, vector control and parental Mtb strain, pH 5.5): 100 µg/mL (≈ 812 µM); MIC ([2]; pH 5.5): 500 µg/mL (≈ 4060 µM); increase in the minimum inhibitory concentration (MIC) ([2]; pH 5.5): 5 fold
CCn1cc(C(=O)O)c(=O)c2cc(F)c(N3CCNCC3)cc21 [norfloxacin] |  | remained the same |  | 
CO[C@H]1/C=C/O[C@@]2(C)Oc3c(C)c(O)c4c(O)c(c(/C=N/N5CCN(C)CC5)c(O)c4c3C2=O)NC(=O)/C(C)=C\C=C\[C@H](C)[C@H](O)[C@@H](C)[C@@H](O)[C@@H](C)[C@H](OC(C)=O)[C@@H]1C [rifampin] |  | remained the same |  | 
[H]/N=C(/N)N[C@H]1[C@H](O)[C@@H](O)[C@H](O[C@@H]2O[C@@H](C)[C@](O)(C=O)[C@H]2O[C@@H]2O[C@@H](CO)[C@H](O)[C@@H](O)[C@@H]2NC)[C@@H](N/C(N)=N\[H])[C@@H]1O [streptomycin] |  | remained the same |  | 

Reference: patent US20130149701A1, “METHODS OF IDENTIFYING THERAPEUTIC AGENTS FOR TREATING PERSISTER AND BACTERIAL INFECTION” (priority 2010, published 2013)
